Consider 17 compounds from ChEMBL document CHEMBL3862023, “Synthesis of N-aryl and N-arylcarbamoylamino derivatives of 1,3-diazinane-5-carboxamide and their activity against glioblastoma LN-229 cell line” (Bioorg Med Chem, 2016).

Series [1] can be described thus: Solubility of the compound in DMSO/TFA. Type of series: physicochemical.
A short description of series [2]: Solubility of the compound in CHCl3/TFA. It is filed as physicochemical.
The nature of series [3]: Solubility of the compound in isopropanol. It is filed as physicochemical.
Series [4] is described as follows: Solubility of the compound in DMSO. It is filed as physicochemical.
The nature of series [5]: Cytotoxicity against human LN229 cells assessed as concentration required for induction of cell death after 24 hrs by crystal violet staining based light microscopic analysis. Type of series: functional, LN-229.
The nature of series [6]: Solubility of the compound in ethanol. Type of series: physicochemical.
The nature of series [7]: Solubility of the compound in chloroform. Type of series: physicochemical.
The nature of series [8]: Solubility of the compound in trifluoroacetic acid. Type of series: physicochemical.

As for `N#Cc1ccc(NC(=O)NNC(=O)C2C(=O)NC(=O)N(c3ccccc3)C2=O)cc1` (configuration not stated), the solubility result in series [1], in series [2], in series [3], in series [4], in series [6] and in series [7] was “Insoluble” each time. Besides, the solubility entry in series [8] is recorded as “Insoluble”. Moreover, in series [5], the Activity stood at 100 µg/mL.

Regarding `O=C(NNC(=O)C1C(=O)NC(=O)N(c2ccccc2)C1=O)Nc1ccc(Cl)cc1` (configuration not stated), the solubility entry in series [1], in series [2], in series [3], in series [4], in series [6] and in series [7] was “Insoluble” in each case. Besides, the solubility result in series [8] is on record as “Insoluble”. Also, the Activity in series [5] worked out at 100 µg/mL.

Turning to `O=C(NNC(=O)C1C(=O)NC(=O)N(c2ccccc2)C1=O)Nc1ccc(O)c([N+](=O)[O-])c1` (configuration not stated), the solubility result in series [1], in series [2], in series [3], in series [4], in series [6] and in series [7] was “Insoluble” each time. In addition, the solubility result in series [8] was “Insoluble”. The Activity in series [5] is 100 µg/mL.

Regarding `CN1C(=O)NC(=O)C(C(=O)NNC(=O)Nc2ccc(C#N)cc2)C1=O` (configuration not stated), the solubility entry in series [1], in series [2], in series [3], in series [4], in series [6] and in series [7] was “Insoluble” throughout. For the same compound, in series [8], the solubility entry was “Insoluble”.

Regarding `O=C(NNC(=O)C1C(=O)NC(=O)N(c2ccccc2)C1=O)Nc1ccccc1` (configuration not stated), the solubility result in series [1], in series [2], in series [3], in series [4], in series [6] and in series [7] was “Insoluble” in each case. Also, the solubility entry in series [8] is on record as “Insoluble”.

With `O=C1NC(=O)C(C(=O)NNC(=O)Nc2ccc(Cl)c(Cl)c2)C(=O)N1`, the solubility entry was “Soluble” in series [1]; “Soluble” in series [2]; “Insoluble” in series [3]; “Insoluble” in series [4]; “Insoluble” in series [6]; “Insoluble” in series [7]. For the same compound, the solubility result in series [8] is on record as “Soluble”.

For the compound `CN1C(=O)C(C(=O)NNC(=O)Nc2cccc(O)c2)C(=O)N(C)C1=O`, the solubility result in series [1], in series [2], in series [3], in series [4], in series [6] and in series [7] was “Insoluble” in each case. Moreover, the solubility entry in series [8] was “Insoluble”.

On to `O=C(NNC(=O)C1C(=O)NC(=O)N(c2ccccc2)C1=O)Nc1ccc(F)cc1` (configuration not stated), for which the solubility result in series [1], in series [2], in series [3], in series [4], in series [6] and in series [7] was “Insoluble” in each case. Besides, the solubility entry in series [8] is recorded as “Insoluble”.

In the case of `O=C1NC(=O)C(C(=O)NNC(=O)Nc2cccc(O)c2)C(=O)N1`, the solubility result in series [1] is “Soluble”; in series [2], “Soluble”; in series [3], “Insoluble”; in series [4] it was “Insoluble”; in series [6], “Insoluble”; in series [7], “Insoluble”. The solubility result in series [8] is listed as “Soluble”.

With `O=C1NC(=O)C(C(=O)NNC(=O)Nc2ccc(F)cc2)C(=O)N1`, the solubility result is given as “Soluble” in series [1]; “Soluble” in series [2]; “Insoluble” in series [3]; “Insoluble” in series [4]; “Insoluble” in series [6]; “Insoluble” in series [7]. The solubility result in series [8] was “Soluble”.

Turning to `CN1C(=O)NC(=O)C(C(=O)NNC(=O)Nc2ccccc2)C1=O` (configuration not stated), the solubility result in series [1], in series [2], in series [3], in series [4], in series [6] and in series [7] was “Insoluble” throughout. Besides, in series [8], the solubility entry was “Insoluble”.

Turning to `CN1C(=O)NC(=O)C(C(=O)NNC(=O)Nc2cccc(O)c2)C1=O` (configuration not stated), the solubility entry in series [1], in series [2], in series [3], in series [4], in series [6] and in series [7] was “Insoluble” throughout. Further, the solubility entry in series [8] is listed as “Insoluble”.

As for `CN1C(=O)NC(=O)C(C(=O)NNC(=O)Nc2ccc(Cl)c(Cl)c2)C1=O` (configuration not stated), the solubility entry in series [1], in series [2], in series [3], in series [4], in series [6] and in series [7] was “Insoluble” throughout. In addition, the solubility result in series [8] is given as “Insoluble”.

As for `CN1C(=O)C(C(=O)NNC(=O)Nc2ccccc2)C(=O)N(C)C1=O`, the solubility result in series [1], in series [2], in series [3], in series [4], in series [6] and in series [7] was “Insoluble” throughout. Further, the solubility entry in series [8] is “Insoluble”.

Turning to `O=C1NC(=O)C(C(=O)NNC(=O)Nc2ccc([N+](=O)[O-])cc2)C(=O)N1`, the solubility result in series [1] is reported as “Soluble”; in series [2], “Soluble”; in series [3], “Insoluble”; in series [4], “Insoluble”; in series [6], “Insoluble”; in series [7], “Insoluble”. In addition, the solubility entry in series [8] is “Soluble”.

For `O=C(NNC(=O)C1C(=O)NC(=O)N(c2ccccc2)C1=O)Nc1ccc(O)cc1` (configuration not stated), the solubility result in series [1], in series [2], in series [3], in series [4], in series [6] and in series [7] was “Insoluble” each time. In addition, in series [8], the solubility result was “Insoluble”.

As for `N#Cc1ccc(NC(=O)NNC(=O)C2C(=O)NC(=O)NC2=O)cc1`, the solubility result in series [1] is reported as “Soluble”; in series [2], “Soluble”; in series [3], “Insoluble”; in series [4], “Insoluble”; in series [6], “Insoluble”; in series [7], “Insoluble”. In series [8], the solubility result was “Soluble”.
